Experimental data from article PMC9405216, “Antimicrobial and Cytotoxic Cyathane-Xylosides from Cultures of the Basidiomycete Dentipellis fragilis” (Antibiotics, 2022).
Values after ≈ are worked out from the molar mass of the structure shown. Where two headings read alike, the source gives them in different places.

Legend:
Assay type in all cases: cell-based
[1] = test system: Mucor hiemalis (DSM 2656); test: Serial dilution MIC assay, Mucor hiemalis; conditions: overnight incubation, n.i. = no inhibition
Procedure: (§1) Serial dilution assays in 96-well microtiter plates were performed according to our standard protocol in order to determine the minimum inhibitory concentrations (MICs) of pure isolated compounds against different microorganisms. Essentially, aliquots of compounds 1–5 and 9 (20 µL), each with an initial concentration of 1 mg/mL, were diluted in MeOH together with the respective microorganisms to concentrations ranging between 67 µg/mL and 0.5 µg/mL in the 96-well plates, followed by overnight incubation. The MIC was then determined as the lowest concentration at which no growth of the test organism was observed. A broad spectrum of clinically approved test pathogens and sensitivity indicator strains were used in the assays (Table 4 and Table 5). Ciprofloxacin, oxytetracycline, kanamycin, and gentamycin were used as positive controls against bacterial pathogens, while nystatin was used as the positive control against fungi.

[2] = test system: Actinobacter baumannii (DSM 30008); test: Serial dilution MIC assay, Actinobacter baumannii; conditions: serial dilution 67-0.5 µg/mL, overnight incubation, n.i. = no inhibition
Procedure: as §1

[3] = test system: A549 (ACC107) human lung carcinoma; test: MTT cytotoxicity test, A549; conditions: Homo sapiens, 120 h, five days incubation
Description: (§2) A panel of mammalian cell lines was used to determine the cytotoxicity of the compounds following a previously published protocol. The assay was initially performed using the sensitive cell lines KB3.1 (human endocervical adenocarcinoma) and L929 (mouse fibroblasts). Active compounds were further tested using the cell lines MCF-7 (human breast adenocarcinoma), PC-3 (human prostate adenocarcinoma), SKOV-3 (ovarian carcinoma), A549 (human lung carcinoma), and A431 (human squamous cell carcinomas) (Table 6). The cell lines A549, KB 3.1, and L929 were cultured in DMEM (Gibco, provided by Thermo Fisher Scientific), PC-3 in F12-K (Gibco) and MC-7, and SKOV-3 and A431 in RPMI (Gibco). With the exception of A549, all cell lines were supplemented with 10% bovine serum (Gibco). All cell lines were cultured at 37 °C. The L929 and KB 3.1 cell lines were cultivated under an atmosphere of 10% (v/v) carbon dioxide. Cytotoxicity tests were then carried out using MTT (3-(4,5-dimethylthiazol-2-yl)-2,5-diphenyltetrazolium bromide) in 96-well microtiter plates. Serial dilutions of the compounds (60 µL aliquots, each with an initial concentration of 1 mg/mL) were added into 120 µL aliquots of cell suspension (50000 cells/mL) in the 96-well plates. These were incubated for five days, after which an MTT assay was performed. The absorbance was taken at 590 nm using an Elisa plate reader (Victor, Überlingen, Germany). The half-maximal inhibitory concentration (IC50), the concentration at which cell growth inhibition was 50% of the control, was calculated as described elsewhere.

[4] = test system: Bacillus subtilis (DSM 10); test: Serial dilution MIC assay, Bacillus subtilis; conditions: overnight incubation, n.i. = no inhibition
Procedure: as §1

[5] = test system: Mycolicibacterium smegmatis (ATCC 700084); test: Serial dilution MIC assay, Mycolicibacterium smegmatis; conditions: overnight incubation, n.i. = no inhibition
Procedure: as §1

[6] = test system: other cell lines (MCF-7, A549, PC-3, SKOV-3, A431); test: MTT cytotoxicity test, other cell lines of the panel; conditions: range over the cell lines other than L929 and KB3.1 (Table 6)
Description: as §2, with “These were incubated for five days, after which an MTT assay was performed.” left out, “The half-maximal inhibitory concentration (IC50), the concentration at which cell growth inhibition was 50% of the control, was calculated as described elsewhere.” left out

[7] = test system: Escherichia coli (DSM 1116); test: Serial dilution MIC assay, Escherichia coli; conditions: serial dilution 67-0.5 µg/mL, overnight incubation, n.i. = no inhibition
Procedure: as §1

[8] = test system: A431 (ACC91) human squamous cell carcinomas; test: MTT cytotoxicity test, A431; conditions: A-431, 120 h, five days incubation
Description: as §2

[9] = test system: MCF-7 (A115) human breast adenocarcinoma; test: MTT cytotoxicity test, MCF-7; conditions: MCF7, 120 h, MCF-7 human breast adenocarcinoma, five days incubation
Description: as §2

[10] = test system: Chromobacterium violaceum (DSM 30191); test: Serial dilution MIC assay, Chromobacterium violaceum; conditions: overnight incubation, n.i. = no inhibition
Procedure: as §1

[11] = test system: SKOV-3 (ovarian carcinoma); test: MTT cytotoxicity test, SKOV-3; conditions: Homo sapiens, SK-OV-3, 120 h, five days incubation
Description: as §2

[12] = test system: Candida albicans (DSM 1665); test: Serial dilution MIC assay, Candida albicans; conditions: serial dilution 67-0.5 µg/mL, overnight incubation, n.i. = no inhibition
Procedure: as §1

[13] = test system: Staphylococcus aureus (DSM 346); test: Serial dilution MIC assay, Staphylococcus aureus; conditions: overnight incubation, n.i. = no inhibition
Procedure: as §1

[14] = test system: Rhodotorula glutinis (DSM 10134); test: Serial dilution MIC assay, Rhodotorula glutinis; conditions: overnight incubation, n.i. = no inhibition
Procedure: as §1

[15] = test system: L929 (ACC2) mouse fibroblasts; test: MTT cytotoxicity test, L929; conditions: five days incubation, n.c. = no cytotoxicity
Description: as §2

[16] = test system: Schizosaccharomyces pombe (DSM 70572); test: Serial dilution MIC assay, Schizosaccharomyces pombe; conditions: overnight incubation, n.i. = no inhibition
Procedure: as §1

[17] = test system: Pseudomonas aeruginosa (DSM PA14); test: Serial dilution MIC assay, Pseudomonas aeruginosa; conditions: serial dilution 67-0.5 µg/mL, overnight incubation, n.i. = no inhibition
Procedure: as §1

[18] = test system: KB3.1 (ACC158) human endocervical adenocarcinoma; test: MTT cytotoxicity test, KB3.1; conditions: KB3.1 human endocervical adenocarcinoma, five days incubation, n.c. = no cytotoxicity
Description: as §2

[19] = test system: PC-3 (ACC465) human prostate adenocarcinoma; test: MTT cytotoxicity test, PC-3; conditions: 120 h, PC-3 human prostate adenocarcinoma, five days incubation
Description: as §2

[20] = test system: Pichia anomala (DSM 6766); test: Serial dilution MIC assay, Pichia anomala; conditions: overnight incubation, n.i. = no inhibition
Procedure: as §1

[21] = test system: tested microorganisms (bacteria and fungi); test: Serial dilution MIC assays, whole panel of tested strains; conditions: all bacteria and fungi of Tables 4 and 5, result in words
Procedure: as §1

[22] = DSM2656, serial dilution 67-0.5 µg/mL, read-out: MIC
[23] = DSM10, serial dilution 67-0.5 µg/mL, read-out: MIC
[24] = DSM346, serial dilution 67-0.5 µg/mL, read-out: MIC
[25] = DSM10134, serial dilution 67-0.5 µg/mL, read-out: MIC

| MIC [1, 22] [µg/mL] | MIC [2] | MIC [4, 23] [µg/mL] | MIC [7] | MIC ([10]; serial dilution 67-0.5 µg/mL) | MIC [12] | MIC [13, 24] [µg/mL] | MIC [14, 25] [µg/mL] | MIC [17] | MIC ([5]; serial dilution 67-0.5 µg/mL) | MIC ([16]; serial dilution 67-0.5 µg/mL) | MIC ([20]; serial dilution 67-0.5 µg/mL) | Structure (SMILES) | IC50 ([15]; 120 h, read-out: IC50) [µM] | IC50 ([18]; KB 3-1, 120 h, read-out: IC50) [µM] | IC50 [15] | IC50 [18] | other results |
| --- | --- | --- | --- | --- | --- | --- | --- | --- | --- | --- | --- | --- | --- | --- | --- | --- | --- |
| 16.7 (≈ 38.8 µM) | n.i. | 1 (≈ 2.32 µM) | n.i. | n.i. | n.i. | 4.2 (≈ 9.76 µM) | 16.7 (≈ 38.8 µM) | n.i. | – | – | – | CC(C)C1=C2C3CC=C4C5OC6C(O)(COC7OC(C4C76O)C3(C)CCC2(C)CC1)O5 (stereo not drawn) [Compound 1, dentifragilin A] | 5.8 | 2.2 | – | – | IC50 [3]: 2.8 µM; MIC ([5]; ATCC700084, serial dilution 67-0.5 µg/mL, read-out: MIC): 66.6 µg/mL (≈ 155 µM); IC50 [6]: 0.7 to 15.8 µM; IC50 [8]: 15.8 µM; IC50 [9]: 0.7 µM; IC50 [11]: 1.9 µM; MIC ([16]; DSM70572, serial dilution 67-0.5 µg/mL, read-out: MIC): 33.3 µg/mL (≈ 77.3 µM); IC50 [19]: 2.3 µM; MIC ([20]; Hansenula anomala, DSM6766, serial dilution 67-0.5 µg/mL, read-out: MIC): 66.6 µg/mL (≈ 155 µM) |
| 66.6 (≈ 148 µM) | n.i. | 16.7 (≈ 37.1 µM) | n.i. | n.i. | n.i. | 33.3 (≈ 73.9 µM) | 66.6 (≈ 148 µM) | n.i. | n.i. | n.i. | n.i. | CC(C)C1=C2[C@H]3CC[C@H](CO)[C@@H]4[C@H](O[C@@H]5OC[C@@H](O)[C@H](O)[C@@]54O)[C@]3(C)CC[C@@]2(C)CC1=O [Compound 4, dentifragilin D] | 48.9 | 42.2 | weak activities | weak activities | – |
| 33.3 (≈ 77 µM) | n.i. | 16.7 (≈ 38.6 µM) | n.i. | – | n.i. | 16.7 (≈ 38.6 µM) | 66.6 (≈ 154 µM) | n.i. | n.i. | n.i. | n.i. | CC(C)C1=C2[C@H]3CC=C(C=O)[C@@H]4[C@H](O[C@@H]5OC[C@@H](O)[C@H](O)[C@@]54O)[C@]3(C)CC[C@@]2(C)CC1 [Compound 5, dentifragilin E] | 34.7 | 15.7 | weak activities | weak activities | MIC ([10]; DSM30191, serial dilution 67-0.5 µg/mL, read-out: MIC): 66.6 µg/mL (≈ 154 µM) |

Continued, compound first:

| Structure (SMILES) | MIC [1, 22] [µg/mL] | MIC [2] | MIC [4, 23] [µg/mL] | MIC [7] | MIC ([10]; serial dilution 67-0.5 µg/mL) | MIC [12] | MIC [13, 24] [µg/mL] | MIC [14, 25] [µg/mL] | MIC [17] | MIC ([5]; serial dilution 67-0.5 µg/mL) | MIC ([16]; serial dilution 67-0.5 µg/mL) | MIC ([20]; serial dilution 67-0.5 µg/mL) | IC50 ([15]; 120 h, read-out: IC50) [µM] | IC50 ([18]; KB 3-1, 120 h, read-out: IC50) [µM] | IC50 [15] | IC50 [18] | other results |
| --- | --- | --- | --- | --- | --- | --- | --- | --- | --- | --- | --- | --- | --- | --- | --- | --- | --- |
| CC(C)C1=C2[C@H]3CC=C4[C@@H]5O[C@@H]6[C@@]7(O)[C@@H](OC[C@]6(O)O5)O[C@@H]([C@@H]47)[C@]3(C)CC[C@@]2(C)CC1=O [Compound 2, dentifragilin B] | – | n.i. | 66.6 (≈ 150 µM) | n.i. | n.i. | n.i. | 66.6 (≈ 150 µM) | – | n.i. | n.i. | n.i. | n.i. | – | 51 | no activity | – | MIC ([1]; serial dilution 67-0.5 µg/mL): n.i.; MIC ([14]; serial dilution 67-0.5 µg/mL): n.i. |
| CC(C)C1=C2[C@H]3CC[C@@H]4CO[C@@]5(O)[C@H](O)CO[C@H]6O[C@@H]([C@@H]4[C@]65O)[C@]3(C)CC[C@@]2(C)CC1=O [Compound 3, dentifragilin C] | – | n.i. | – | n.i. | n.i. | n.i. | – | – | n.i. | n.i. | n.i. | n.i. | – | – | not cytotoxic | not cytotoxic | MIC ([1]; serial dilution 67-0.5 µg/mL): n.i.; MIC ([4]; serial dilution 67-0.5 µg/mL): n.i.; activity against all tested microorganisms [21]: devoid of any activity; MIC ([13]; serial dilution 67-0.5 µg/mL): n.i.; MIC ([14]; serial dilution 67-0.5 µg/mL): n.i. |
| CC(C)C1=C2[C@H]3CC[C@H](CO)[C@@H]4[C@H](O[C@@H]5OC[C@@H](O)[C@H](O)[C@@]54O)[C@]3(C)CC[C@@]2(C)CC1 [Compound 6, dentifragilin F] | – | – | – | – | – | – | – | – | – | – | – | – | – | – | not cytotoxic | not cytotoxic | – |
| CO[C@H]1O[C@@]2(O)[C@H](O)CO[C@H]3O[C@H]4[C@@H]([C@@H]1CC[C@@H]1C5=C(C(C)C)CC[C@]5(C)CC[C@]14C)[C@]32O [Compound 7, dentifragilin G] | – | – | – | – | – | – | – | – | – | – | – | – | 14.9 | 10.3 | weak activities | weak activities | – |
